# Data as given in patent US9125913B2, “Bcl-2-selective apoptosis-inducing agents for the treatment of cancer and immune diseases” (AbbVie Inc., priority 2008, dated 2015).
# Tested on: GST-Bcl-2
# Assay: TR-FRET binding assay, Bcl-2
# Settings: TR-FRET Ki values
# Method: Tb-anti-GST antibody was purchased from Invitrogen (Catalog No. PV4216).
# Representative compounds were serially diluted in dimethyl sulfoxide (DMSO) starting at 50 μM (2× starting concentration; 10% DMSO) and 10 μL were transferred into a 384-well plate.
# The samples were then mixed on a shaker for 1 minute and incubated for an additional 3 hours at room temperature. For each assay, the probe/antibody and protein/probe/antibody were included on each assay plate as negative and positive controls, respectively. Fluorescence was measured on the Envision (Perkin Elmer) using a 340/35 nm excitation filter and 520/525 (F-Bak peptide) and 495/510 nm (Tb-labeled anti-Histidine antibody) emission filters.
# The inhibition constant (Ki) is the dissociation constant of an enzyme-inhibitor complex or a protein/small molecule complex, wherein the small molecule is inhibiting binding of one protein to another protein or peptide. […] Inhibition constants were determined using Wang's equation (Wang Z-X., An Exact Mathematical Expression For Describing Competitive Binding Of Two Different Ligands To A Protein Molecule. FEBS Lett. 1995, 360:111-4).
row,SMILES,Binding selectivity ratio (Bcl-XL Ki/Bcl-2 Ki)
1,"CC1(C)CCC(CN2CCN(c3ccc(C(=O)NS(=O)(=O)c4ccc(NC5CCCCC5N)c([N+](=O)[O-])c4)c(Oc4ccc5[nH]ccc5c4)c3)CC2)=C(c2ccc(Cl)cc2)C1 (centres unmarked) [EXAMPLE 208, N-({4-[(2-aminocyclohexyl)amino]-3-nitrophenyl}sulfonyl)-4-(4-{[2-(4-chlorophenyl)-4,4-dimethylcyclohex-1-en-1-yl]methyl}piperazin-1-yl)-2-(1H-indol-5-yloxy)benzamide]",>1120.6
2,"CN(C)CC#Cc1ccc(-c2ccc(Cl)cc2)c(CN2CCN(c3ccc(C(=O)NS(=O)(=O)c4ccc(NCC5CCOCC5)c([N+](=O)[O-])c4)c(Oc4cccc5[nH]ccc45)c3)CC2)c1 [EXAMPLE 209, 4-[4-({4′-chloro-4-[3-(dimethylamino)prop-1-ynyl]-1,1′-biphenyl-2-yl}methyl)piperazin-1-yl]-2-(1H-indol-4-yloxy)-N-({3-nitro-4-[(tetrahydro-2H-pyran-4-ylmethyl)amino]phenyl}sulfonyl)benzamide]",>2476.0
3,"CC1(C)CCC(CN2CCN(c3ccc(C(=O)NS(=O)(=O)c4ccc(NC5CCN(CCCC(F)(F)F)CC5)c([N+](=O)[O-])c4)c(Oc4cccc5[nH]ccc45)c3)CC2)=C(c2ccc(Cl)cc2)C1 [EXAMPLE 210, 4-(4-{[2-(4-chlorophenyl)-4,4-dimethylcyclohex-1-en-1-yl]methyl}piperazin-1-yl)-2-(1H-indol-4-yloxy)-N-[(3-nitro-4-{[1-(4,4,4-trifluorobutyl)piperidin-4-yl]amino}phenyl)sulfonyl]benzamide]",>1057.6
4,"CN1CCC(O)(CCNc2ccc(S(=O)(=O)NC(=O)c3ccc(N4CCN(CC5=C(c6ccc(Cl)cc6)CC(C)(C)CC5)CC4)cc3Oc3ccc4[nH]ccc4c3)cc2[N+](=O)[O-])CC1 [EXAMPLE 211, 4-(4-{[2-(4-chlorophenyl)-4,4-dimethylcyclohex-1-en-1-yl]methyl}piperazin-1-yl)-N-[(4-{[2-(4-hydroxy-1-methylpiperidin-4-yl)ethyl]amino}-3-nitrophenyl)sulfonyl]-2-(1H-indol-5-yloxy)benzamide]",651.1
5,"CC1(C)CCC(CN2CCN(c3ccc(C(=O)NS(=O)(=O)c4ccc(NC5CCN(c6nccs6)CC5)c([N+](=O)[O-])c4)c(Oc4ccc5[nH]ccc5c4)c3)CC2)=C(c2ccc(Cl)cc2)C1 [EXAMPLE 212, 4-(4-{[2-(4-chlorophenyl)-4,4-dimethylcyclohex-1-en-1-yl]methyl}piperazin-1-yl)-2-(1H-indol-5-yloxy)-N-[(3-nitro-4-{[1-(1,3-thiazol-2-yl)piperidin-4-yl]amino}phenyl)sulfonyl]benzamide]",>895.1
6,"O=C(NS(=O)(=O)c1ccc(NCC2CCOCC2)c([N+](=O)[O-])c1)c1ccc(N2CCN(Cc3cc(OCCO)ccc3-c3ccc(Cl)cc3)CC2)cc1Oc1cccc2[nH]ccc12 [EXAMPLE 213, 4-(4-{[4′-chloro-4-(2-hydroxyethoxy)-1,1′-biphenyl-2-yl]methyl}piperazin-1-yl)-2-(1H-indol-4-yloxy)-N-({3-nitro-4-[(tetrahydro-2H-pyran-4-ylmethyl)amino]phenyl}sulfonyl)benzamide]",>66000
7,"CC1(C)CCC(CN2CCN(c3ccc(C(=O)NS(=O)(=O)c4ccc(NC5CCN(CC6CC6)CC5)c([N+](=O)[O-])c4)c(Oc4ccc5[nH]ccc5c4)c3)CC2)=C(c2ccc(Cl)cc2)C1 [EXAMPLE 214, 4-(4-{[2-(4-chlorophenyl)-4,4-dimethylcyclohex-1-en-1-yl]methyl}piperazin-1-yl)-N-[(4-{[1-(cyclopropylmethyl)piperidin-4-yl]amino}-3-nitrophenyl)sulfonyl]-2-(1H-indol-5-yloxy)benzamide]",776.6
8,"CN1CCN(Nc2ccc(S(=O)(=O)NC(=O)c3ccc(N4CCN(CC5=C(c6ccc(Cl)cc6)CC(C)(C)CC5)CC4)cc3Oc3cccc4[nH]ccc34)cc2S(=O)(=O)C(F)(F)F)CC1 [EXAMPLE 215, 4-(4-{[2-(4-chlorophenyl)-4,4-dimethylcyclohex-1-en-1-yl]methyl}piperazin-1-yl)-2-(1H-indol-4-yloxy)-N-({4-[(4-methylpiperazin-1-yl)amino]-3-[(trifluoromethyl)sulfonyl]phenyl}sulfonyl)benzamide]",120.8
9,"CC1(C)CCC(CN2CCN(c3ccc(C(=O)NS(=O)(=O)c4ccc(NC5CCN(CCCC(F)(F)F)CC5)c([N+](=O)[O-])c4)c(Oc4ccc5[nH]ccc5c4)c3)CC2)=C(c2ccc(Cl)cc2)C1 [EXAMPLE 216, 4-(4-{[2-(4-chlorophenyl)-4,4-dimethylcyclohex-1-en-1-yl]methyl}piperazin-1-yl)-2-(1H-indol-5-yloxy)-N-[(3-nitro-4-{[1-(4,4,4-trifluorobutyl)piperidin-4-yl]amino}phenyl)sulfonyl]benzamide]",>1073.2
10,"CC(c1ccccc1-c1ccc(Cl)cc1)N1CCN(c2ccc(C(=O)NS(=O)(=O)c3ccc(NN4CCN(C)CC4)c([N+](=O)[O-])c3)c(Oc3cccc4[nH]ccc34)c2)CC1 (centres unmarked) [EXAMPLE 217, 4-{4-[1-(4′-chloro-1,1′-biphenyl-2-yl)ethyl]piperazin-1-yl}-2-(1H-indol-4-yloxy)-N-({4-[(4-methylpiperazin-1-yl)amino]-3-nitrophenyl}sulfonyl)benzamide]",171.1
11,"CN1CCC(Nc2ccc(S(=O)(=O)NC(=O)c3ccc(N4CCN(CC5=C(c6ccc(Cl)cc6)CC(C)(C)CC5)C(CO)C4)cc3Oc3ccc4[nH]ccc4c3)cc2[N+](=O)[O-])CC1 (centres unmarked) [EXAMPLE 218, 4-[4-{[2-(4-chlorophenyl)-4,4-dimethylcyclohex-1-en-1-yl]methyl}-3-(hydroxymethyl)piperazin-1-yl]-2-(1H-indol-5-yloxy)-N-({4-[(1-methylpiperidin-4-yl)amino]-3-nitrophenyl}sulfonyl)benzamide]",738.2
12,"CC1(C)CCC(CN2CCN(c3ccc(C(=O)NS(=O)(=O)c4ccc(NC5CCN(C6CCOCC6)CC5)c([N+](=O)[O-])c4)c(Oc4ccc5[nH]ccc5c4)c3)CC2CO)=C(c2ccc(Cl)cc2)C1 (centres unmarked) [EXAMPLE 219, 4-[4-{[2-(4-chlorophenyl)-4,4-dimethylcyclohex-1-en-1-yl]methyl}-3-(hydroxymethyl)piperazin-1-yl]-2-(1H-indol-5-yloxy)-N-({3-nitro-4-[(1-tetrahydro-2H-pyran-4-ylpiperidin-4-yl)amino]phenyl}sulfonyl)benzamide]",126.8
13,"CN1CCN(Nc2ccc(S(=O)(=O)NC(=O)c3ccc(N4CCN(CC5=C(c6ccc(Cl)cc6)CC(C)(C)CC5)CC4)cc3Oc3ccc4[nH]ccc4c3)cc2S(=O)(=O)C(F)(F)F)CC1 [EXAMPLE 220, 4-(4-{[2-(4-chlorophenyl)-4,4-dimethylcyclohex-1-en-1-yl]methyl}piperazin-1-yl)-2-(1H-indol-5-yloxy)-N-({4-[(4-methylpiperazin-1-yl)amino]-3-[(trifluoromethyl)sulfonyl]phenyl}sulfonyl)benzamide]",163.7
14,"CN1CCC(Nc2ccc(S(=O)(=O)NC(=O)c3ccc(N4CCN(Cc5cc(OCCO)ccc5-c5ccc(Cl)cc5)CC4)cc3Oc3cccc4[nH]ccc34)cc2[N+](=O)[O-])CC1 [EXAMPLE 221, 4-(4-{[4′-chloro-4-(2-hydroxyethoxy)-1,1′-biphenyl-2-yl]methyl}piperazin-1-yl)-2-(1H-indol-4-yloxy)-N-({4-[(1-methylpiperidin-4-yl)amino]-3-nitrophenyl}sulfonyl)benzamide]",3005.2
15,"CC1(C)CCC(CN2CCN(c3ccc(C(=O)NS(=O)(=O)c4ccc(NCCCN5CCNC(=O)C5)c([N+](=O)[O-])c4)c(Oc4ccc5[nH]ccc5c4)c3)CC2)=C(c2ccc(Cl)cc2)C1 [EXAMPLE 222, 4-(4-{[2-(4-chlorophenyl)-4,4-dimethylcyclohex-1-en-1-yl]methyl}piperazin-1-yl)-2-(1H-indol-5-yloxy)-N-[(3-nitro-4-{[3-(3-oxopiperazin-1-yl)propyl]amino}phenyl)sulfonyl]benzamide]",1275.3
16,"CC1(C)CCC(CN2CCN(c3ccc(C(=O)NS(=O)(=O)c4ccc(NCCCN5CCNC(=O)C5)c([N+](=O)[O-])c4)c(Oc4cccc5[nH]ccc45)c3)CC2)=C(c2ccc(Cl)cc2)C1 [EXAMPLE 223, 4-(4-{[2-(4-chlorophenyl)-4,4-dimethylcyclohex-1-en-1-yl]methyl}piperazin-1-yl)-2-(1H-indol-4-yloxy)-N-[(3-nitro-4-{[3-(3-oxopiperazin-1-yl)propyl]amino}phenyl)sulfonyl]benzamide]",574.1
17,"CN1CCC(Nc2ccc(S(=O)(=O)NC(=O)c3ccc(N4CCN(CC5=C(c6ccc(Cl)cc6)CCC(O)C5)CC4)cc3Oc3ccc4[nH]ccc4c3)cc2[N+](=O)[O-])CC1 (centres unmarked) [EXAMPLE 224, 4-(4-{[2-(4-chlorophenyl)-5-hydroxycyclohex-1-en-1-yl]methyl}piperazin-1-yl)-2-(1H-indol-5-yloxy)-N-({4-[(1-methylpiperidin-4-yl)amino]-3-nitrophenyl}sulfonyl)benzamide]",>99.9
